Test [1] has as its target T1, Serine racemase (Homo sapiens, UniProt Q9GZT4).
T1 sequence (Q9GZT4 whole entry): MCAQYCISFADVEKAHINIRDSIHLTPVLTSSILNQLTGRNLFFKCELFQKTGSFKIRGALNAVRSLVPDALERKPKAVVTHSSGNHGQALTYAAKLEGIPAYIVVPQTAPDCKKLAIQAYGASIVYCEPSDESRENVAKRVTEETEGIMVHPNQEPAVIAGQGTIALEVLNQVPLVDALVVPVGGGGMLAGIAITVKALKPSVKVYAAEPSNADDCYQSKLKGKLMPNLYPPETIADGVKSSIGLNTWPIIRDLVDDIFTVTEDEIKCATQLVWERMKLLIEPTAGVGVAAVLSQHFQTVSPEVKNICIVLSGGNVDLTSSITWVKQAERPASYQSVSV
The test can be described thus: Inhibition of human SR extracted from Escherichia coli assessed as beta-eliminase activity using L-Ser as substrate by spectrophotometer assay.

The target of test [2] is T2, Serine racemase (Homo sapiens) (UniProt Q9GZT4).
T2 sequence (whole entry): T1 sequence (Q9GZT4 whole entry)
The test can be described thus: Inhibition of recombinant hexa-His tagged human SR extracted from Escherichia coli BL21 CodonPlusR (DE3)-RIL cells at 2 mM preincubated with compound followed by L-serine addition and measured after 10 mins.

Test [3] addresses T3, Serine racemase (Mus musculus, UniProt Q9QZX7).
T3 sequence (Q9QZX7 whole entry): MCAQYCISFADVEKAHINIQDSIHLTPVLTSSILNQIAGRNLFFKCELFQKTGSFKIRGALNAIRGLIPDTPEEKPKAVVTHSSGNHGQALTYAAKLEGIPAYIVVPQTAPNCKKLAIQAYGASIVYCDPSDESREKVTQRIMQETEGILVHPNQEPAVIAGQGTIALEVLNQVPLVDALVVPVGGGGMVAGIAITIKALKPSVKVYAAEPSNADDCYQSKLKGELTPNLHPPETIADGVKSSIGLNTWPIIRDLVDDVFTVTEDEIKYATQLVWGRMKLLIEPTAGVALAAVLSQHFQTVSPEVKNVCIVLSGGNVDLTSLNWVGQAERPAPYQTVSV
The test can be described thus: Inhibition of mouse SR using L-Serine as substrate incubated for 2 hrs in presence of PLP by spectrophotometer assay.

For test [4], the target named is T4, Phosphoserine aminotransferase (Homo sapiens, UniProt Q9Y617).
T4 sequence (Q9Y617 whole entry): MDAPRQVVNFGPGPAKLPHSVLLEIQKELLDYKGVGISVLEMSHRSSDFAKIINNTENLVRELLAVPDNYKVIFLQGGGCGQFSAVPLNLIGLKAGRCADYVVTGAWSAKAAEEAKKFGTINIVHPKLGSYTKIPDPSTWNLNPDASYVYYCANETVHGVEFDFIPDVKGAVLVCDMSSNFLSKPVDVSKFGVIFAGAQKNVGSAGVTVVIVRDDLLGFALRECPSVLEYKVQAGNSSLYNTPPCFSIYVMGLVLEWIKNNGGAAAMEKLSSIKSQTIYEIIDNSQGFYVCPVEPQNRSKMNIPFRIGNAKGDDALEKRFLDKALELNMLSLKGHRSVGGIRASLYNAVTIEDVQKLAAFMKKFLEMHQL
The test can be described thus: Inhibition of human PSAT extracted from Escherichia coli BL21(DE3) cells preincubated with compound followed by L-OPS addition in presence of PLP.

Calls of active or inactive are those of the source. The rule behind the calls is not given here.

What is called IC50 is the midpoint of a concentration-inhibition curve. As to `O=C(O)[C@H]1C[C@H]1C(=O)O`, the IC50 at Serine racemase [1] came out at 3 mM. Consider `N[C@@H](Cc1ccccc1)C(=O)O`, for which the result in test [2] was inactive. Regarding `N[C@H]1CONC1=O` [LEVCYCLOSERINE], the concentration for half-maximal inhibition (IC50) at Serine racemase [3] was found to be 2.27 mM. As for `O=C(O)CC(=O)O` [MALONIC ACID], the IC50 at Serine racemase [1] is 0.071 mM. For `NOC(Cc1ccc(-c2ccccc2)cc1)C(=O)O` (stereo not given), in test [4], the IC50 stood at 2200 nM.

(Values after ChEMBL document CHEMBL5608223, “Chemical Probes to Investigate Central Nervous System Disorders: Design, Synthesis and Mechanism of Action of a Potent Human Serine Racemase Inhibitor” (ACS Med Chem Lett, 2024).)
